Laboratory results taken from patent US5043332A, “Novel 11β-substituted -19-nor-steriods” (priority 1981, dated 1991).

Tested on: uterine endometrium
Assay: Progestomimetic activity, oral, change in uterine endometrium (McPhail)
Type: in vivo, immature female rabbits
Method: IV. Progestomimetic and Anti-progestomimetic Activity
a) Groups of immature female rabbits weighing about 1 kg had administered to them subcutaneously from day 1 to day 5, 5 μg of estradiol. The product tested was afterward administered orally from day 8 to day 11 in a volume of 0.5 cm^3 of water containing 0.5% of carboxymethyl cellulose and 0.2% of Tween. On day 12, the rabbits were sacrificed, their uteruses were retained and fixed in Bouin's solution and histologically studied.
The changes in the uterine endometrium were noted according to the method of McPhail.

Measured: CHANGE IN THE ENDOMETRIUM

CC#C[C@]1(O)CC[C@H]2[C@@H]3CCC4=CC(=O)CCC4=C3[C@@H](c3ccc(N(C)C)cc3)C[C@@]21C [Example 19, 11β-[4-(N,N-dimethylamino)-phenyl]-17α-(prop-1-ynyl)-Δ^4,9-estradiene-17β-ol-3-one]
0 McPHAIL UNTS: 0.3 mg/kg by mouth | 1.0 mg/kg by mouth | 3.0 mg/kg by mouth | 10.0 mg/kg by mouth | 50 mg/kg by mouth
